# Key:
# [1] = Cleavage reaction progress monitoring by 1H NMR spectroscopy; type: physicochemical; conditions: 4 mM enamine N-oxide, 10 mM B2(OH)4, 10% DMSO-d6/23% CD3OD/d-PBS, pH 7.4
# Description: Diboron reagents and enamine N-oxide structures in hand, the reaction kinetics were characterized and the substrate scope for the cleavage reaction was explored. A series of chromogenic probes 32″, 38″, 39″ featuring a representative series of nitrogen, oxygen, and sulfur-bearing leaving groups were obtained. Each probe was synthesized from cyclooct-2-ynol either by Mitsunobu reaction or carbamoylation with the corresponding p-nitro(thio)phenol or p-nitrophenyl isocyanate followed by hydroamination with N,N-diethylhydroxylamine. The formation of the intended products was verified by ^1H NMR spectroscopy with caffeine as an internal standard (FIG. 29A, FIG. 33, FIG. 34). […] Over the course of 24 h, iminium ion 35″ hydrolyzed to cyclooctenone 36″ and diethylamine 37″. The other substrates reacted analogously with the same quantitative formation of iminium ion 35″ at the initial time point (FIG. 29B). […]
# The chromogenic probes that were prepared were intended for stopped flow kinetics experiments using UV-vis spectroscopy; however, the NMR studies precluded the use of one of these compounds for this purpose. […] Since a change in UV absorbance is contingent on p-nitroaniline formation, it could not be used or any analogous carbamate-based chromogenic or fluorogenic outputs as accurate proxies for product release. Instead, a fluorescence polarization assay was employed. […]
# [2] = Retro-Cope elimination of linear alkynes 1′, 4′, 6′ with N,N-diethylhydroxylamine (Scheme 1); type: physicochemical; conditions: with N,N-diethylhydroxylamine (2′)
# Description: The impact of inductively withdrawing halogen and chalcogen substituents at the propargylic and terminal positions of the alkyne were evaluated. Retro-Cope elimination reaction between propargyl ether 1′ and N,N-diethylhydroxylamine (2′) was completed in 18 hours whereas hydroamination of terminal alkyne 4′ was incomplete, even after 10 days. […] The regioselectivities induced by the propargyl and terminal alkyne substituents appeared to be reinforcing.
# [3] = test system: SK-BR-3 HER2+ breast cancer cells; experiment: Cell viability assay (CellTiter-Glo), SK-BR-3; type: cell-based; conditions: Homo sapiens, SK-BR-3, 72 h, read-out: IC50, cell viability, without diboron
# Description: Cell viability assay: SK-BR-3 or MDA-MB-231 cell were seeded at a density of 5,000-10,000 cells per well in media [100 μL, RPMI (SK-BR-3) or DMEM (MDA-MB-231) supplemented with 5% heat-inactivated human serum (Sigma), penicillin (100 units/mL), streptomycin (0.1 mg/mL)] in an opaque 96-well plate. PBS (100 μL) was added to the edge wells. The cells were incubated at 37° C. under ambient atmosphere with 5% CO2. […] The plates were incubated at 37° C. with 5% CO2 for 72 h (SK-BR-3) or 96 h (MDA-MB-231). After the plates were equilibrated at room temperature, CellTiter-Glo™ 2.0 reagent (50 μL, Promega™) was added to each well and mixed gently. The plates were incubated at room temperature for 10 min to stabilize the luminescence signal and analyzed by a microplate reader (Clariostar Plus, BMG Labtech) (FIG. 48 and FIG. 49).
# [4] = test system: MDA-MB-231 HER2− breast cancer cells; experiment: Cell viability assay (CellTiter-Glo), MDA-MB-231; type: cell-based; conditions: Homo sapiens, MDA-MB-231, 96 h, read-out: IC50, cell viability, without diboron
# Description: SK-BR-3 cells were treated with […]-100 nM trastuzumab-MMAE 61″ in the presence or absence of 50 μM B2pin2, cultured for 72 h, and assayed using the CellTiter-Glo® cell viability assay. The IC50 of the ADC was insensitive to the presence or absence of diboron and recapitulated the IC50 of MMAE alone.
# This N-oxide-based drug delivery platform provides a convenient mechanism for loading drugs onto antibodies as well as an appealing alternative to existing methods for the fast and complete release of drug molecules from their carriers.
# Cell culture: Cells were cultured in RPMI (SK-BR-3) or DMEM (MDA-MB-231) containing 10% FBS (Sigma), 100 units/mL penicillin, and 0.1 mg/mL streptomycin (Sigma) in a humidified chamber at 37° C. under an ambient atmosphere with 5% CO2. Cells were passaged and dissociated with 0.25% trypsin, 0.1% EDTA in HBSS (Corning). […]
# Cell viability assay: SK-BR-3 or MDA-MB-231 cell were seeded at a density of 5,000-10,000 cells per well in media [100 μL, RPMI (SK-BR-3) or DMEM (MDA-MB-231) supplemented with 5% heat-inactivated human serum (Sigma), penicillin (100 units/mL), streptomycin (0.1 mg/mL)] in an opaque 96-well plate. […] The plates were incubated at room temperature for 10 min to stabilize the luminescence signal and analyzed by a microplate reader (Clariostar Plus, BMG Labtech) (FIG. 48 and FIG. 49).
# [5] = test system: cell surface HaloTag-GFP expressed on HEK293T cells; experiment: Live cell labeling experiment (confocal microscopy); type: cell-based; conditions: 10 μM 21′, then 10 μM 22′ for 1 hour, fixed
# Description: Live cell labeling by hydroamination was explored. HEK293T cells were transiently transfected with a cell surface HaloTag-GFP construct, treated with 10 μM HaloTag linker-conjugated difluoropropargyl ether 21′, washed, and incubated with 10 μM TAMRA-conjugated hydroxylamine 22′ for 1 hour. The cells were then fixed and visualized by confocal microscopy.
# Cell Culture: HEK-293T cells were cultured in Dulbecco's Modified Eagle Medium (DMEM, Corning®) containing 10% fetal bovine serum (FBS, Sigma), 100 units/mL penicillin, and 0.1 mg/mL streptomycin (Sigma) in a humidified chamber at 37° C. with 5% CO2. Cells were passaged and dissociated with 0.25% trypsin, 0.1% EDTA in HBSS (Corning®). Cells tested negative for […] by the MycoAlert PLUS Mycoplasma Detection Kit (Lonza) following the manufacturer's protocol.
# Preparation for 12-Well Plate: Coverslips (15 mm circle, thickness 0.13-0.17 mm) were acid-washed according to the Cold Spring Harbor protocol (Fischer et al., Cold Spring Harb. Protoc. 2008:pdb.prot4988 (2008)). A coverslip was added to each well in a 12-well plate followed by an aqueous solution of poly-D-lysine (0.1 mg/mL, 30-70 kDa, 800 μL). The plate was gently shaken to distribute the solution evenly, incubated at room temperature for 1 hour, washed using 1 mL of autoclaved deionized water for each well, and dried overnight. […]
# [6] = Cross reactivity: hydroxylamine with trans-cyclooctene 19, aldehyde 20, cyclopropene 21, alkyne 22; type: physicochemical
# Description: The reaction mixtures were analyzed by ^1H NMR spectroscopy.
# [7] = Cross reactivity: hydroxylamine under Cu-catalyzed azide-alkyne cycloaddition (CuAAC) conditions; type: physicochemical; conditions: alkyne S17, THPTA, CuSO4, sodium ascorbate, PBS pH 7.4, 0-4 hours, HPLC
# Description: A solution of N,N-diethylhydroxylamine (0.8 μL, 100 mM in PBS, pH 7.4) was added to this mixture to bring the total volume to 200 μL. The solution was immediately transferred to a clean HPLC vial to monitor the reaction progress and incubated at room temperature in the dark. The reaction was analyzed by HPLC (Pursuit 200 Å C18, 4.6×150 mm, 10 μm particles, 1 mL/min flow rate, eluent: isocratic 0% MeCN/H2O+0.1% TFA (1 minute), gradient 0→100% MeCN/H2O+0.1% TFA (14 minutes), isocratic 100% MeCN/H2O+0.1% TFA (1 minute)) at each time point (0, 1, 2, and 4 hours) and quantified using its absorbance at 280 nm.
# [8] = target: T1, lysozyme-TAMRA conjugate 6″conj (Gallus gallus, UniProt P00698); experiment: Screening of diboron derivatives 27″-31″ for cleavage of conjugate 6″conj; type: biochemical; conditions: PBS, 1 h
# T1 construct: purchased
# T1 sequence (P00698 19-147): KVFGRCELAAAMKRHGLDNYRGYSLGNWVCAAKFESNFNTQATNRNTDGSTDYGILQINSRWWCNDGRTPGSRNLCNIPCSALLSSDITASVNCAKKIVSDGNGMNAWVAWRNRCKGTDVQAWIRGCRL
# Description: The impact of boron ligands on the dissociation reaction was also explored. […] Lysozyme-TAMRA conjugate 6″conj was treated with 5 or 50 μM of each diboron reagent in PBS and analyzed by in-gel fluorescence after 1 h.
# A solution of diborons 27″-31″ (0.34 μL, 125 μM or 1.25 mM in DMSO; 5 or 50 μM final concentration) was added to a solution of lysozyme-fluorophore conjugate 6″conj (8 μL, 0.50 μM in PBS, pH 7.4). The reaction mixtures were incubated at room temperature in the dark. After 60 min, each reaction mixture was quenched by adding trimethylamine N-oxide (0.93 uL, 100 mM in H2O; 10 mM final concentration) and diluted with 1.6×SDS sample buffer (14.32 μL). Each solution (10 μL) was loaded onto a 15-well 12% SDS-PAGE gel. The gel was run at room temperature and at 175 V for 50 min. In-gel fluorescence was imaged with a Typhoon™ FLA 9500 (GE) at 532 nm with a photomultiplier tube (PMT) setting of 500 V (FIG. 41).
structure (smiles),measurement,setting,value
"CC[N+]([O-])(CC)/C1=C/C(Oc2ccc([N+](=O)[O-])cc2)CCCCC1 (stereo not shown) [32″, (E)-N,N-Diethyl-3-(4-nitrophenoxy)cyclooct-1-en-1-amine oxide]",time to complete reduction / conversion of enamine N-oxide,[1],≤ 4 min
"OCCCCCC#CCl [6′, 7-chlorohept-6-yn-1-ol]",time to completion of retro-Cope elimination,[2],~24 h
"CC[C@H](C)[C@@H]([C@@H](CC(=O)N1CCCC1[C@H](OC)[C@@H](C)C(=O)N[C@H](C)[C@@H](O)c1ccccc1)OC)N(C)C(=O)[C@@H](NC(=O)[C@@H](NC)C(C)C)C(C)C (stereo partly shown) [MMAE, monomethyl auristatin E]",IC50,[3],0.154 nM
same,IC50,[4],0.75 nM
"CC[N+]([O-])(CC)/C1=C/C(Sc2ccc([N+](=O)[O-])cc2)CCCCC1 (stereo not shown) [38″, (E)-N,N-Diethyl-3-((4-nitrophenyl)thio)cyclooct-1-en-1-amine oxide]",time to complete reduction / conversion of enamine N-oxide,[1],≤ 4 min
"O=C(NCCOCCOCCCCCCCl)OCCOC(F)(F)C#CCl [21′, 2-((3-chloro-1,1-difluoroprop-2-yn-1-yl)oxy)ethyl (2-(2-((6-chlorohexyl)oxy)ethoxy)ethyl)carbamate]",live cell labeling (TAMRA signal),[5],localized at the cell surface and co-localized with the GFP signal of transfected cells
"CCN(O)CC [compound 1, N,N-diethylhydroxylamine]",reactivity with strained alkenes,"[6]; 5 mM hydroxylamine with 5 mM cyclopropene 21 or trans-cyclooctene 19, d3-acetonitrile",proved unreactive
same,"cross-reactivity with 19, 20, 21 or 22","[6]; CD3CN, 1 hour, room temperature, 1H NMR",No change in the spectra was observed
same,reaction under CuAAC conditions,[7],No reaction was observed
"OB(O)B(O)O [Tetrahydroxydiboron, tetrahydroxydiboron]",cleavage of 6″conj at 5 μM diboron reagent,[8],reach completion by 1 h

# Source: US20240165259A1, “BIOORTHOGONAL REACTION SUITABLE FOR CLICK/UNCLICK APPLICATIONS” (DANA-FARBER CANCER INSTITUTE, INC., priority 2021, published 2024)
